Measured values published in patent publication US20260102383A1, “LPAR1 Inhibitors” (AbbVie Inc., priority 2024, published 2026).

Target: T1, human LPAR1 (Homo sapiens, UniProt Q92633)
T1 construct: host or cells: TangoEDG2-bla U2OS cells
Experiment: Arrestin assay (Arrestin Reporter EDG2-bla U2OS), inhibition of LPA-stimulated signal
Assay type: cell-based
Settings: TangoEDG2-bla U2OS cells expressing human LPAR1; 0.25 μM LPA; read-out: Arrestin Reporter EDG2-bla U2OS Human Merged IC50
Method in brief: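 IC50 comes from a variable-slope 4-parameter fit of % inhibition, calculated from the beta-lactamase FRET ratio (emission 460/530 nm, excitation 409 nm, 2 h development at RT). Compounds, 10 μM down to 0.00006 μM in 3-fold steps, were given 1 h before 0.25 μM final LPA for 3 h in TangoEDG2-bla U2OS cells.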

T1 sequence (Q92633 whole entry): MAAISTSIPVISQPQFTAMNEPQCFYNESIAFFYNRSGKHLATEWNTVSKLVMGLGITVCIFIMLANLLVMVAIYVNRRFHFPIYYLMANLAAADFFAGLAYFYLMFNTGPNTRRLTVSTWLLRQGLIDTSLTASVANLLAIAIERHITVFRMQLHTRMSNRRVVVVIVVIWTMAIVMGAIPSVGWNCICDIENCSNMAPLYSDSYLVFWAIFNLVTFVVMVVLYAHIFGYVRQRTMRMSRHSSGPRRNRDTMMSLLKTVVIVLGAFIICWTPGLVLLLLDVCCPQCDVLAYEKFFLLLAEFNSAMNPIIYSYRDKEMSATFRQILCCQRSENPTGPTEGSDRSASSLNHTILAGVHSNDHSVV

SMILES | IC50
CCC(=O)N1CC(CN2CCC(C(=O)Nc3ccc(Cl)cc3OC(F)F)(n3nccc3C(C)C)CC2)(C(=O)O)C1 [Compound 64, 3-[[4-[[4-chloro-2-(difluoromethoxy)phenyl]carbamoyl]-4-(5-isopropylpyrazol-1-yl)-1-piperidyl]methyl]-1-propanoyl-azetidine-3-carboxylic acid] | 51.5 nM
CO[C@H]1CC[C@@H]([C@H](CN2CCC(C(=O)Nc3ccc(Cl)cc3OC(F)F)(n3nccc3C(C)C)CC2)C(=O)O)CC1 (single isomer, unassigned) [Compound 184] | 77.3 nM
CC(C)c1ccnn1C1(C(=O)Nc2ccc(Cl)cc2OC(F)F)CCN(C[C@@H](C)C(=O)O)CC1 [Compound 86, (2R)-3-[4-[[4-chloro-2-(difluoromethoxy)phenyl]carbamoyl]-4-(5-isopropylpyrazol-1-yl)-1-piperidyl]-2-methyl-propanoic acid] | 20.2 nM
CC(C)c1c(F)cnn1C1(C(=O)Nc2ccc(Cl)cc2OC(F)F)CCN(C[C@]2(C(=O)O)CC[C@H](O)CC2)CC1 [Compound 161, (1r,4r)-1-[[4-[[4-chloro-2-(difluoromethoxy)phenyl]carbamoyl]-4-(4-fluoro-S-isopropyl-pyrazol-1-yl)-1-piperidyl]methyl]-4-hydroxy-cyclohexanecarboxylic acid] | 212 nM
Cc1cnn(CC(CN2CCC(C(=O)Nc3ccc(Cl)cc3OC(F)F)(n3nccc3C(C)C)CC2)C(=O)O)c1 (centres unmarked) [Compound 189, 2-[[4-[[4-chloro-2-(difluoromethoxy)phenyl]carbamoyl]-4-(5-isopropylpyrazol-1-yl)-1-piperidyl]methyl]-3-(4-methylpyrazol-1-yl)propanoic acid] | 31.2 nM
CC(C)c1ccnn1C1(C(=O)Nc2ccc(Cl)cc2OC(F)F)CCN(CC2(C(=O)O)CCN(C(=O)C34CC(C(C)C)(C3)C4)CC2)CC1 [Compound 57, 4-[[4-[[4-chloro-2-(difluoromethoxy)phenyl]carbamoyl]-4-(5-isopropylpyrazol-1-yl)-1-piperidyl]methyl]-1-(3-isopropylbicyclo[1.1.1]pentane-1-carbonyl)piperidine-4-carboxylic acid] | 6.83 nM
CC(C)c1ccnn1C1(C(=O)Nc2ccc(Cl)cc2OC(F)F)CCN(C[C@@](C)(O)C(=O)O)CC1 [Compound 235, (2R)-3-[4-[[4-chloro-2-(difluoromethoxy)phenyl]carbamoyl]-4-(5-isopropylpyrazol-1-yl)-1-piperidyl]-2-hydroxy-2-methyl-propanoic acid] | 20.9 nM
CC1(C)COc2cnn(C3(C(=O)Nc4ccc(Cl)cc4OC(F)F)CCN([C@H]4C[C@@H](C(=O)O)C4)CC3)c21 [Compound 103, (1s,3s)-3-[4-[[4-chloro-2-(difluoromethoxy)phenyl]carbamoyl]-4-(6,6-dimethyl-5H-furo[3,2-c]pyrazol-1-yl)-1-piperidyl]cyclobutanecarboxylic acid] | 164 nM
CC(C)c1ccnn1C1(C(=O)Nc2ccc(Cl)cc2OC(F)F)CCN(C[C@@H](C(=O)O)C2CCOCC2)CC1 (single isomer, unassigned) [Compound 14, (2.5)-3-[4-[[4-chloro-2-(difluoromethoxy)phenyl]carbamoyl]-4-(5-isopropylpyrazol-1-yl)-1-piperidyl]-2-tetrahydropyran-4-yl-propanoic acid] | 33.9 nM
CC(C)c1ccnn1C1(C(=O)Nc2ccc(Cl)cc2OC(F)F)CCN(C[C@H](C(=O)O)C2COCCOC2)CC1 [Compound 216, (2R)-3-[4-[[4-chloro-2-(difluoromethoxy)phenyl]carbamoyl]-4-(5-isopropylpyrazol-1-yl)-1-piperidyl]-2-(1,4-dioxepan-6-yl)propanoic acid] | 28.4 nM
CC(C)c1ccnn1C1(C(=O)Nc2ccc(Cl)cc2OC(F)F)CCN(CCC(C)(C)C(=O)O)CC1 [Compound 2, 4-[4-[[4-chloro-2-(difluoromethoxy)phenyl]carbamoyl]-4-(5-isopropylpyrazol-1-yl)-1-piperidyl]-2,2-dimethyl-butanoic acid] | 50.3 nM
